How the values were obtained:
[1] = Selectivity index, ratio of CC50 for human AC10 cells to IC50 for human HCT116 cells; format: toxicity; details: AC10 cells (CC50) and HCT116 cells (IC50)
[2] = Selectivity index, ratio of CC50 for mouse TAMH cells to IC50 for human PC3 cells; format: toxicity; details: TAMH cells (CC50) and PC3 cells (IC50)
[3] = species on record: Homo sapiens; experiment: Selectivity ratio of IC50 for human JAK3 to IC50 for human JAK2
[4] = system: HCT-116; experiment: Induction of apoptosis in human HCT116 cells assessed as live cells at 1.14 uM after 72 hrs by Annexin V-FITC/propidium iodide staining based flow cytometry (reference value: 95.7%); format: functional
[5] = system: MCF7; experiment: Antiproliferative activity against human MCF7 cells after 72 hrs by MTT assay; format: functional, cell-based; details: MCF7, 72 h
[6] = system: HCT-116; experiment: Induction of apoptosis in human HCT116 cells assessed as necrotic cells at 1.14 uM after 72 hrs by Annexin V-FITC/propidium iodide staining based flow cytometry (reference value: 1.54%); format: functional
[7] = Antiproliferative activity against human AC10 cells after 72 hrs by MTT assay; format: cell-based
[8] = system: MCF7; experiment: Induction of apoptosis in human MCF7 cells assessed as live cells at 0.86 uM after 72 hrs by Annexin V-FITC/propidium iodide staining based flow cytometry (reference value: 95.05%); format: functional
[9] = system: MDA-MB-231; experiment: Induction of apoptosis in human MDA-MB-231 cells assessed as live cells at 0.9 uM after 72 hrs by Annexin V-FITC/propidium iodide staining based flow cytometry (reference value: 90.98%); format: functional
[10] = species on record: Homo sapiens; experiment: Selectivity ratio of IC50 for human JAK1 to IC50 for human JAK2
[11] = biological target: Non-receptor tyrosine-protein kinase TYK2 (Homo sapiens, UniProt P29597); experiment: Inhibition of human TYK2 using KKSRGDYMTMQIG as substrate preincubated for 20 mins followed by [gamma33P]ATP addition measured after 120 mins by ion exchange filter paper method
[12] = biological target: Tyrosine-protein kinase JAK2 (Homo sapiens, UniProt O60674); experiment: Inhibition of human JAK2 using poly(Glu:Tyr)(4:1) as substrate preincubated for 20 mins followed by [gamma33P]ATP addition measured after 120 mins by ion exchange filter paper method
[13] = system: MCF7; experiment: Induction of apoptosis in human MCF7 cells assessed as late apoptotic cells at 0.86 uM after 72 hrs by Annexin V-FITC/propidium iodide staining based flow cytometry (reference value: 1.59%); format: functional
[14] = Selectivity index, ratio of CC50 for human AC10 cells to IC50 for human MDA-MB-231 cells; format: toxicity; details: AC10 cells (CC50) and MDA-MB-231 cells (IC50)
[15] = system: PC-3; experiment: Induction of apoptosis in human PC3 cells assessed as necrotic cells at 0.71 uM after 72 hrs by Annexin V-FITC/propidium iodide staining based flow cytometry (reference value: 0.66%); format: functional
[16] = system: MDA-MB-231; experiment: Induction of apoptosis in human MDA-MB-231 cells assessed as late apoptotic cells at 0.9 uM after 72 hrs by Annexin V-FITC/propidium iodide staining based flow cytometry (reference value: 2.12%); format: functional
[17] = system: MCF7; experiment: Induction of apoptosis in human MCF7 cells assessed as necrotic cells at 0.86 uM after 72 hrs by Annexin V-FITC/propidium iodide staining based flow cytometry (reference value: 2.17%); format: functional
[18] = Selectivity index, ratio of CC50 for human AC10 cells to IC50 for human PC3 cells; format: toxicity; details: AC10 cells (CC50) and PC3 cells (IC50)
[19] = species on record: Homo sapiens; experiment: Selectivity ratio of IC50 for human TYK2 to IC50 for human JAK2
[20] = system: PC-3; experiment: Induction of apoptosis in human PC3 cells assessed as live cells at 0.71 uM after 72 hrs by Annexin V-FITC/propidium iodide staining based flow cytometry (reference value: 96.36%); format: functional
[21] = system: PC-3; experiment: Antiproliferative activity against human PC3 cells after 72 hrs by MTT assay; format: functional, cell-based; details: PC-3, 72 h
[22] = Selectivity index, ratio of CC50 for mouse TAMH cells to IC50 for human HCT116 cells; format: toxicity; details: TAMH cells (CC50) and HCT116 cells (IC50)
[23] = system: MDA-MB-231; experiment: Antiproliferative activity against human MDA-MB-231 cells after 72 hrs by MTT assay; format: functional, cell-based; details: MDA-MB-231, 72 h
[24] = Selectivity index, ratio of CC50 for mouse TAMH cells to IC50 for human MCF7 cells; format: toxicity; details: TAMH cells (CC50) and MCF7 cells (IC50)
[25] = Selectivity index, ratio of CC50 for human AC10 cells to IC50 for human MCF7 cells; format: toxicity; details: AC10 cells (CC50) and MCF7 cells (IC50)
[26] = system: MDA-MB-231; experiment: Induction of apoptosis in human MDA-MB-231 cells assessed as early apoptotic cells at 0.9 uM after 72 hrs by Annexin V-FITC/propidium iodide staining based flow cytometry (reference value: 1.45%); format: functional
[27] = system: PC-3; experiment: Induction of apoptosis in human PC3 cells assessed as early apoptotic cells at 0.71 uM after 72 hrs by Annexin V-FITC/propidium iodide staining based flow cytometry (reference value: […]%); format: functional
[28] = biological target: Tyrosine-protein kinase JAK1 (Homo sapiens, UniProt P23458); experiment: Inhibition of human JAK1 using poly(Glu:Tyr)(4:1) as substrate preincubated for 20 mins followed by [gamma33P]ATP addition measured after 120 mins by ion exchange filter paper method
[29] = system: MDA-MB-231; experiment: Induction of apoptosis in human MDA-MB-231 cells assessed as necrotic cells at 0.9 uM after 72 hrs by Annexin V-FITC/propidium iodide staining based flow cytometry (reference value: 5.45%); format: functional
[30] = Antiproliferative activity against mouse TAMH cells after 72 hrs by MTT assay; format: cell-based

Sequence of Tyrosine-protein kinase JAK2 (O60674 whole entry): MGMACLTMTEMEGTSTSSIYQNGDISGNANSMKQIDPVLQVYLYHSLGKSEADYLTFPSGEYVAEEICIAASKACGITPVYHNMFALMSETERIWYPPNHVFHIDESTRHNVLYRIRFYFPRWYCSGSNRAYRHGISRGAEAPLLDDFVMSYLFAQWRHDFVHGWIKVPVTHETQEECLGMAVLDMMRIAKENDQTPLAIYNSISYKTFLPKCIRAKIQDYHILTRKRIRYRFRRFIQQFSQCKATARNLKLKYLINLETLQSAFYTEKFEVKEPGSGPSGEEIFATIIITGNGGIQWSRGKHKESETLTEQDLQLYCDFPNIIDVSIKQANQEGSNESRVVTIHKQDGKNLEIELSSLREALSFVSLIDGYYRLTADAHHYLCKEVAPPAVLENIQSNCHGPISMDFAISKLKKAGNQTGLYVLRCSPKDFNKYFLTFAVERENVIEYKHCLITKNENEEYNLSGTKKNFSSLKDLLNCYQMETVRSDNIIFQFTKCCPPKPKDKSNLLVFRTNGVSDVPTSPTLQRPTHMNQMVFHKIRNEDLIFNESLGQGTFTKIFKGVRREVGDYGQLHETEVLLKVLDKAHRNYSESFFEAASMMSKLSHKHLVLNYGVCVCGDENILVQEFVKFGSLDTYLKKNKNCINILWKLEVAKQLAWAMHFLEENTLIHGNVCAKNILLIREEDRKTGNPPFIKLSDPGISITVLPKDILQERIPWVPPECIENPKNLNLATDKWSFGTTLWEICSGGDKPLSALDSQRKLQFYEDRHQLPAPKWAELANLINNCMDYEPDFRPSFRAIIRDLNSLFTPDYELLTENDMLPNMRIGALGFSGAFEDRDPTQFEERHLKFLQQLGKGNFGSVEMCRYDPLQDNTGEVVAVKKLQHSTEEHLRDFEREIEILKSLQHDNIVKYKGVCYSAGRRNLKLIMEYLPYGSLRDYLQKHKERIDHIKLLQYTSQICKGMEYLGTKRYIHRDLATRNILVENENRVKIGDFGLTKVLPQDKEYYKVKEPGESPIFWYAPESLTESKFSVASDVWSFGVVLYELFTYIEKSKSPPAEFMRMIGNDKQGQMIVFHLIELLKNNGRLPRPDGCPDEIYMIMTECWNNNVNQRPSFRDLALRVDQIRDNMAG
Sequence of Tyrosine-protein kinase JAK1 (P23458 whole entry): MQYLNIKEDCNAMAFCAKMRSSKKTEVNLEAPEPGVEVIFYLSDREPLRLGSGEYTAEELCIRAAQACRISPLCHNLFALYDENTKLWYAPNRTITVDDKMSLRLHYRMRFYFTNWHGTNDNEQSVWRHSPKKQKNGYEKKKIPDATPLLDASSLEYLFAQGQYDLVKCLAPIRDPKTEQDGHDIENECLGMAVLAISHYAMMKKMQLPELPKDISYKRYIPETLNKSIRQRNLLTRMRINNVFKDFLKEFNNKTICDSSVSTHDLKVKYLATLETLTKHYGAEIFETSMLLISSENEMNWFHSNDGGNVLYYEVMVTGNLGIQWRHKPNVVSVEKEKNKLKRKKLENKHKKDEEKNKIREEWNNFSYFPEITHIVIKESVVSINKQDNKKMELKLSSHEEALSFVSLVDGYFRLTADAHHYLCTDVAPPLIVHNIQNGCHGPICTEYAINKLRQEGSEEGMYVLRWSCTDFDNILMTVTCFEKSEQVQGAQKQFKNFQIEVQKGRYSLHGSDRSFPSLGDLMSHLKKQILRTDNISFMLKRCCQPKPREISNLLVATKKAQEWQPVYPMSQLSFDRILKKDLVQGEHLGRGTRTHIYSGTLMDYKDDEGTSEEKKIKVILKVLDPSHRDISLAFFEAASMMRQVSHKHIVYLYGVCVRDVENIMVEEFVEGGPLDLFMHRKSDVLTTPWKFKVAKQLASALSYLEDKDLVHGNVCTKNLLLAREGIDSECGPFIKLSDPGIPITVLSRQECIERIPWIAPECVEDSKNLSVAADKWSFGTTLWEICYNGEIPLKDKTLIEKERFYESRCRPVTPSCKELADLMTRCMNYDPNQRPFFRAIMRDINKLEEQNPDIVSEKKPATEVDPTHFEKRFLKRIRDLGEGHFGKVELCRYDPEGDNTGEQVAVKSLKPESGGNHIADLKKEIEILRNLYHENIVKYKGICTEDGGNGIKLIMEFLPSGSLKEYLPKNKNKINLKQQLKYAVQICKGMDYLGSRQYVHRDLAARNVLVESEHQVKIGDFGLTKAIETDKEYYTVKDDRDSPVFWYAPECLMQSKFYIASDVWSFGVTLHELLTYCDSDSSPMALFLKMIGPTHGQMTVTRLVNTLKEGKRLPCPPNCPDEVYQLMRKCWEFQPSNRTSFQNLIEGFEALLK
Sequence of Non-receptor tyrosine-protein kinase TYK2 (P29597 whole entry): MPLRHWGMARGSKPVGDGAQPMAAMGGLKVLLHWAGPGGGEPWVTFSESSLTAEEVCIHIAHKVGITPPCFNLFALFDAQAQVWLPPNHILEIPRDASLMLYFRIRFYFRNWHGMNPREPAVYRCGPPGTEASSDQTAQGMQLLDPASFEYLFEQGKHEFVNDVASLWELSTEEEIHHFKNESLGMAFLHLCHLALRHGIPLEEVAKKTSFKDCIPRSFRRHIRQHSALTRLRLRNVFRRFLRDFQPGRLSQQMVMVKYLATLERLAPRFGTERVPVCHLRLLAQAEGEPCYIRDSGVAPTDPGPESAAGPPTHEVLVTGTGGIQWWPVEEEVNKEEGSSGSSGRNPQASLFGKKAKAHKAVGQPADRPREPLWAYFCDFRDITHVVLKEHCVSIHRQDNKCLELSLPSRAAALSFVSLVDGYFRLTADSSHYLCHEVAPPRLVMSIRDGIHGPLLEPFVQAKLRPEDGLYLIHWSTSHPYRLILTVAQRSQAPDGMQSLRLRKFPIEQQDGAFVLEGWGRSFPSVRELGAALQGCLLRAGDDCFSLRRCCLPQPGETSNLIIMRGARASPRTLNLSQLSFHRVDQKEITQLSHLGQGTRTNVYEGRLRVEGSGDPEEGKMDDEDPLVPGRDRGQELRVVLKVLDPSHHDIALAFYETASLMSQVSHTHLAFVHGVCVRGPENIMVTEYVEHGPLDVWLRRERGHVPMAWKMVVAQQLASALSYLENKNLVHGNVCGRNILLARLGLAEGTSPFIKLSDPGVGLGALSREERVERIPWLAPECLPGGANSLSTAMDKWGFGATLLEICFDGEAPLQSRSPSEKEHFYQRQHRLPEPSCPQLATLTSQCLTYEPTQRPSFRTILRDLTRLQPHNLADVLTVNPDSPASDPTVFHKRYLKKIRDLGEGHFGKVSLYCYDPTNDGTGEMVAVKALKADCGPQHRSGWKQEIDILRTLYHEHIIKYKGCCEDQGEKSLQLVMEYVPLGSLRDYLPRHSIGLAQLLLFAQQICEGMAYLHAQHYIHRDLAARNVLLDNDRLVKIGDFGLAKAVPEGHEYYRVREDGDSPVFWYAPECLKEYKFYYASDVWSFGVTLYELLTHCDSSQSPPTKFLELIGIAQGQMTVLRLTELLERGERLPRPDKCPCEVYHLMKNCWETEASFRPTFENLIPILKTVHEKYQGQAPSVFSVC

Ratio IC50 [3]: 25.8
IC50 [5]: 700 nM
Ratio IC50 [10]: 16.8
IC50 [11]: 79.4 nM
IC50 [12]: 3.1 nM
Ratio IC50 [19]: 25.6
IC50 [21]: 640 nM
IC50 [23]: 990 nM
IC50 [28]: 52.1 nM
Compound: O=C(CCCCCCC(=O)Nc1ccc(-c2ccnc(Nc3ccc(N4CCOCC4)cc3)n2)cc1)NO
selectivity ratio [1]: 3.79
selectivity ratio [2]: 9.98
Activity [4]: 52.4%
Activity [6]: 4.29%
CC50 at 72 h [7]: 3.98 µM
Activity [8]: 37.54%
Activity [9]: 10.29%
Activity [13]: 24.84%
selectivity ratio [14]: 4.02
Activity [15]: 1.37%
Activity [16]: 39.98%
Activity [17]: 7.97%
selectivity ratio [18]: 6.22
Activity [20]: 39.88%
selectivity ratio [22]: 6.09
selectivity ratio [24]: 9.13
selectivity ratio [25]: 5.69
Activity [26]: 43.86%
Activity [27]: 45.69%
Activity [29]: 5.87%
CC50 at 72 h [30]: 6.39 µM

Source: ChEMBL document CHEMBL4265943, “Design and synthesis of potent dual inhibitors of JAK2 and HDAC based on fusing the pharmacophores of XL019 and vorinostat” (Eur J Med Chem, 2018)
